Molecules are shown by their SMILES.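 48-hour exposure; five concentrations; linearly interpolated endpoints. At the GI50, growth is halved.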 Calls of active or inactive are those of the source. No stated cut-off is given here; in the data, active = GI50 up to about 1.1 µM and inactive = higher. A value given as a limit tells only on which side of the number the result lay.

Assay in all cases: DTP human tumour cell line panel, 48 h
Test [1] deals with MCF7.
Test [2] relates to SN12C.
Test [3] deals with PC-3.
Test [4] has as its system UACC-62.
For test [5], the system named is MDA-MB-435.
Test [6] concerns HCT-15.
Test [7] concerns SNB-19.
The subject of test [8] is EKVX.
For test [9], the system named is CCRF-CEM.
For test [10], the system named is HOP-62.
The subject of test [11] is T47D.
For test [12], the system named is SW-620.
Test [13] concerns Malme-3M.
Test [14] deals with SK-MEL-5.
The test system of test [15] is MOLT-4.
The test system of test [16] is BT-549.
The test system of test [17] is ACHN.
In test [18] the test system is NCI-H522.
In test [19] the test system is SR.

`NC(=O)NC1C(c2ccccc2)=C1c1ccccc1`: the GI50 (as a rule, the concentration at which growth is held to half of that of the control) in test [1] is 14.7 µM (inactive); in test [2], 13.6 µM (inactive); in test [3], 17.1 µM (inactive); in test [4], 9.23 µM (inactive); in [5] it was 18.7 µM (inactive); in test [6] it was 13.6 µM. The GI50 in test [7] was 34.8 µM (inactive); in [8], 26.8 µM (inactive); in test [9], 5.47 µM (inactive); in [10] it was 36.4 µM (inactive); in test [11] it was 69.5 µM (inactive); in test [12] it was 13.7 µM (inactive). The GI50 in [13] was 21.1 µM (inactive); in test [14], 11.1 µM (inactive); in [15], 4.88 µM (inactive); in [16] it was 12.6 µM (inactive); in [17] it was 10.6 µM (inactive).

Take `CCN1C(=O)C(=C/C=C/C=C2/N(C)c3ccccc3C2(C)C)C(=O)N(CC)C1=S`: the GI50 is > 100 µM (inactive) in [1]; > 100 µM (inactive) in test [2]; > 100 µM (inactive) in [4]; > 100 µM (inactive) in [5]; more than 100 µM in test [6]; > 100 µM (inactive) in [7]. Also, the GI50 is > 100 µM (inactive) in [8]; > 100 µM (inactive) in [9]; 32.5 µM (inactive) in [10]; 82.4 µM (inactive) in test [11]; > 100 µM (inactive) in [12]; > 100 µM (inactive) in test [13]. The GI50 was > 100 µM (inactive) in test [18]; > 10 µM (inactive) in test [14]; 13.6 µM (inactive) in [16]; 53.6 µM (inactive) in test [17]; > 10 µM (inactive) in test [19].

Regarding `CN(C)NC1=NS(=O)(=O)c2cc3c(=O)n(C)[nH]c3cc2S1`, the GI50 is 5.05 µM (inactive) in [1]; > 10 µM (inactive) in test [2]; > 10 µM (inactive) in [3]; more than 10 µM in test [6]; > 10 µM (inactive) in test [7]; > 10 µM (inactive) in [8]. Further, the GI50 in [9], in [10], in test [11], in [12], in test [13] and in test [18] was > 10 µM (inactive) each time. In addition, the GI50 in [14], in test [15], in test [16], in test [17] and in test [19] was > 10 µM (inactive) in each case.

In the case of `C/C(=N/NC(=S)N(C)CCc1ccccn1)c1cnccn1`, the GI50 in test [1] was < 0.01 µM (active); in test [2] it was < 0.01 µM (active); in [3], < 0.01 µM (active); in test [4] it was 0.0986 µM (active); in test [5] it was 0.867 µM (active); in test [6], less than 0.01 µM. Also, the GI50 in [7] was 0.437 µM (active); in test [8], < 0.01 µM (active); in test [9], < 0.0358 µM (active); in test [10], < 0.0246 µM (active); in test [12], < 0.01 µM (active); in test [13] it was < 0.01 µM (active). In addition, the 50% growth inhibitory concentration (GI50) in test [18] was < 0.01 µM (active); in test [14], 0.0256 µM (active); in test [15], < 0.01 µM (active); in test [16] it was 0.398 µM (active); in [17], < 0.01 µM (active); in test [19], 0.018 µM (active).

On to `CSc1nc(NC2CC2)c2c(n1)Sc1nc3ccccc3n1N=C2`, for which the GI50 in test [1] is 26.6 µM (inactive); in test [2], 8.55 µM (inactive); in test [3], 29.5 µM (inactive); in [4], 17.9 µM (inactive); in [5] it was 35.5 µM (inactive); in test [6], 28.4 µM. The GI50 was 34.4 µM (inactive) in [7]; 24.2 µM (inactive) in test [8]; > 100 µM (inactive) in test [9]; 16.3 µM (inactive) in [10]; 26.6 µM (inactive) in test [12]; 16.7 µM (inactive) in [13]. Further, the GI50 was 16.9 µM (inactive) in test [18]; 17 µM (inactive) in [14]; > 100 µM (inactive) in test [15]; 34.2 µM (inactive) in test [16]; 11 µM (inactive) in test [17]; > 100 µM (inactive) in [19].

On to `O=C1CCC2SC1CCC2=O`, for which the GI50 in test [1] was > 100 µM (inactive); in test [2], > 100 µM (inactive); in test [3], > 100 µM (inactive); in test [5], > 100 µM (inactive); in test [6], more than 100 µM; in [7], > 100 µM (inactive). The GI50 in [8], in test [9], in [10], in test [12], in [13] and in test [18] was > 100 µM (inactive) throughout. The GI50 in test [14], in test [15], in [16] and in [17] was > 100 µM (inactive) in each case.

In the case of `Cc1ccc(S(=O)(=O)N/N=C2/C(=O)Nc3c(Cl)cc(Cl)cc32)cc1`, the GI50 in test [1] was 75 µM (inactive); in [2] it was > 100 µM (inactive); in [3], 78.3 µM (inactive); in test [4], 62.5 µM (inactive); in test [5] it was 51.6 µM (inactive); in [6], 68.9 µM. Also, the GI50 in [7] was > 100 µM (inactive); in test [8], 5.52 µM (inactive); in [9], 55.6 µM (inactive); in test [10], > 100 µM (inactive); in test [12] it was 99.1 µM (inactive); in [13], 91.4 µM (inactive). Besides, the GI50 in test [14] is 59.6 µM (inactive); in [15], 38.5 µM (inactive); in [16], 86.7 µM (inactive); in test [17], > 100 µM (inactive); in test [19], 34.4 µM (inactive).

`Cc1ccc(S(=O)(=O)N2CCCSCCSCCCN(S(=O)(=O)c3ccc(C)cc3)CC2)cc1`: the GI50 was > 100 µM (inactive) in [1]; > 100 µM (inactive) in test [2]; > 100 µM (inactive) in [4]; > 100 µM (inactive) in [5]; more than 100 µM in test [6]; > 100 µM (inactive) in test [7]. Further, the GI50 in [8] was > 100 µM (inactive); in [10] it was > 100 µM (inactive); in test [11], 57.8 µM (inactive); in test [12], > 100 µM (inactive); in test [14], > 100 µM (inactive); in [15] it was > 100 µM (inactive). The GI50 in test [16] and in test [17] was > 100 µM (inactive) throughout.

In the case of `COCO[C@@H]1C[C@H]2C(=O)Nc3ccccc3C(=O)N2C1`, the GI50 in [1] was 54.1 µM (inactive); in [2] it was 88.1 µM (inactive); in [3], 43.8 µM (inactive); in [4], > 100 µM (inactive); in [5] it was 53.7 µM (inactive); in test [6], more than 100 µM. In addition, the GI50 in test [7] was 77.4 µM (inactive); in test [8], > 100 µM (inactive); in [10] it was 39.8 µM (inactive); in [11], 69.2 µM (inactive); in test [12], 50.7 µM (inactive); in [13], 40.3 µM (inactive). The GI50 was 16.2 µM (inactive) in test [18], 24.1 µM (inactive) in test [14], 35.3 µM (inactive) in [16] and 50.6 µM (inactive) in test [17].

Regarding `CN(C)S(=O)(=O)/N=C/c1cccc(/C=N/S(=O)(=O)N(C)C)c1`, the GI50 was 46.7 µM (inactive) in test [1]; > 100 µM (inactive) in test [2]; > 100 µM (inactive) in test [3]; > 100 µM (inactive) in [4]; 44.8 µM (inactive) in [5]; more than 100 µM in test [6]. The GI50 in [7] is > 100 µM (inactive); in test [8], 64.9 µM (inactive); in test [9], 74.8 µM (inactive); in test [10], > 100 µM (inactive); in test [11], > 100 µM (inactive); in [12], 64 µM (inactive). Moreover, the GI50 in [14] was 55.1 µM (inactive); in test [15] it was > 100 µM (inactive); in [16], 38.1 µM (inactive); in test [17], > 100 µM (inactive).

In the case of `Cc1ccc(-[n+]2cc([O-])on2)cc1`, the GI50 in test [2] was > 100 µM (inactive); in test [3] it was > 100 µM (inactive); in test [4], > 100 µM (inactive); in test [5], > 100 µM (inactive); in test [6] it was more than 100 µM; in test [7] it was > 100 µM (inactive). The GI50 in test [8], in [9], in test [10], in test [11], in test [12] and in [13] was > 100 µM (inactive) in each case. The GI50 in test [18], in test [14], in test [15], in test [16], in test [17] and in test [19] was > 100 µM (inactive) each time.

For `O=C1C=C(c2c(-c3ccccc3)[nH]c3ccccc23)C(=O)N1c1ccccc1`, the GI50 is 6.19 µM (inactive) in [1]; 6.65 µM (inactive) in test [2]; 7.78 µM (inactive) in [3]; 10.7 µM (inactive) in test [4]; 4.02 µM (inactive) in test [5]; 5.38 µM in test [6]. Besides, the GI50 in test [7] is 21.9 µM (inactive); in test [8], 12.4 µM (inactive); in test [9] it was 4.02 µM (inactive); in test [10] it was 0.135 µM (active); in [12], 5.12 µM (inactive); in test [13], 11.5 µM (inactive). Further, the GI50 in test [14] is 8.75 µM (inactive); in [15], 25.2 µM (inactive); in test [16] it was 6.73 µM (inactive); in test [17], 13.9 µM (inactive).

For the origin of these results see ChEMBL document CHEMBL1201862, “PubChem BioAssay data set” (2004).
